Source: publication PMC9331957, “Design and Validation of Nanofibers Made of Self-Assembled Peptides to Become Multifunctional Stimuli-Sensitive Nanovectors of Anticancer Drug Doxorubicin” (Pharmaceutics, 2022)

Experiments:
MDA-MB-231 cells = details: 1 h, 5 µM
From the text: To study the uptake of the nanofibers by cancer cells in vitro, the intrinsic fluorescence of the Doxo was followed by means of the confocal spectral imaging (CSI) technique. Briefly, the CSI consists in recording a full fluorescence spectrum from each point of a scanned optical section of the selected cell and then generating the maps (pseudo-color images) reflecting the distribution of spectral parameters (position, shape, width, intensity) in correlation with biochemical events (accumulation, interaction, metabolism, etc). The cells (SKBR3 or MDA-MB-435 cancer cell lines) were plated at a density of 5 × 10^4 cells/well onto cover glasses in 24-well plates for 1 or 6 h. […] They were analyzed under the 50× LWD objective (numerical aperture 0.75; Olympus, Tokyo, Japan) of a LabRam laser scanning confocal microspectrometer (Horiba SA, Villeneuve d’Ascq, Hauts De France, France) equipped with a 491 nm laser source (Cobolt Calypso™), an automated X–Y–Z scanning stage, a low dispersion grating (300 grooves/mm) and an air-cooled EM CCD detector. […] For fluorescence spectral images acquisition from living cells, the living cells were placed under a 50× microscope and scanned through their equatorial optical section (scanning step of 0.8 µm). The full fluorescence spectrum was recorded from each scanned point (typically 30 × 30 spectra per cell, 0.05 s per spectrum). […]

MDA-MB-231 = assay: Cell proliferation assay (CellTiter-Glo, ATP luminescence); type: cell-based, human; details: MDA-MB-231, 72 h
Procedure: The cytotoxicity profiles of the NF-Doxo and NF-Doxo-SPION were established on cancer cell line MDA-MB-231 (triple negative human breast cancer). Triple MDA-MB-231 (ECACC, Salisbury, UK) cells were cultured at 37 °C in an atmosphere containing 5% CO2. The culture medium was made of DMEM supplemented with 10% fetal bovine serum, 1% non-essential amino acid (Hyclone Laboratories, Logan, UT, USA), and 1% penicillin/streptomycin (Gibco®, Life Technologies, Paisley, UK). The cell harvesting was made with trypsin/EDTA (0.05%) (Gibco®, Life Technologies, Paisley, UK) at 80% of confluence.
Cell viability and proliferation were studied, using a luminescent test based on quantification of ATP, using the CellTiter-Glo cell proliferation assay (Promega, Madison, WI, USA). Briefly, 3.000 MDA-MB-231 cells were incubated in 100 μL of medium in 96-well plates for 24 h and then treated with different samples. A H2O2 solution at 10 mM was used as positive control and the culture medium alone was tested as a negative control. Doxo (stock solution at 5.24 mM in PBS) was used as a reference. […] Cell viability was then determined using CellTiter-Glo reagent (Promega, Madison, WI, USA). […] The luminescence values were measured with a gain at 135, with an acquisition at 0.5 s, using a microplate reader (Bio-Tek® instruments, Inc., VT, Santa Clara, CA, USA). […]

IC50 ratio between NF-Doxo and free Doxo (times lower) (MDA-MB-231): 10 times
Compound: COc1cccc2c1C(=O)c1c(O)c3c(c(O)c1C2=O)C[C@@](O)(C(=O)CO)C[C@@H]3O[C@H]1C[C@H](N)[C@H](O)[C@H](C)O1 [Doxo, Doxorubicin]
fraction of intracellular fluorescence: cytosolic (MDA-MB-231 cells): 24.6 | fraction of intracellular fluorescence: nuclear (MDA-MB-231 cells): 75.4
